Data on one compound can be found in ChEMBL document CHEMBL2331515, “Design, synthesis, and pharmacological characterization of novel endomorphin-1 analogues as extremely potent μ-opioid agonists” (J Med Chem, 2013).

For data set [1], the system named is Mus musculus. In words: Antinociceptive activity in icv dosed Kunming mouse assessed as tail withdrawal latency by hot water tail-flick test. The format is functional. In general terms: Thermal pain tests record how soon the animal reacts.
Data set [2] deals with Mus musculus. Kind of data set: Antinociceptive activity in Kunming mouse assessed as tail withdrawal latency at 2 mg/kg, iv by hot water tail-flick test in presence of naloxone methiodide. The format is functional, organism-based. Set-up: dose 2 mg/kg.
The test system of data set [3] is Mus musculus. In words: Antinociceptive activity in Kunming mouse assessed as tail withdrawal latency at 2 mg/kg, iv by hot water tail-flick test in presence of naloxone. The format is functional, organism-based. Further details: dose 2 mg/kg.
The subject of data set [4] is Mus musculus. Kind of data set: Antinociceptive activity in Kunming mouse assessed as tail withdrawal latency at 2 mg/kg, iv after 15 to 20 mins by hot water tail-flick test relative to control. The format is functional, organism-based. Set-up: dose 2 mg/kg.
In data set [5] the test system is Mus musculus. Kind of data set: Antinociceptive activity in icv dosed Kunming mouse assessed as tail withdrawal latency by hot water tail-flick test in presence of naloxone. The format is functional, organism-based.
For data set [6], the system named is Mus musculus. Kind of data set: Antinociceptive activity in Kunming mouse assessed as tail withdrawal latency at 0.67 to 20 nmol/kg, icv by hot water tail-flick test. The format is functional, organism-based. The following applies: TDE = time-dependent effect.
Data set [7] in a line: Half life in mouse brain homogenate by RP-HPLC analysis. The format is ADME, tissue-based.
The target of data set [8] is T1, Mu-type opioid receptor (Homo sapiens, UniProt P35372). Kind of data set: Agonist activity at FLAG-tagged mu-type opioid receptor (unknown origin) expressed in HEK293 cells assessed as stimulation of ERK1/2 phosphorylation at 1 uM after 2 mins by Western blotting analysis. The format is cell-based.
T1 sequence (P35372 whole entry): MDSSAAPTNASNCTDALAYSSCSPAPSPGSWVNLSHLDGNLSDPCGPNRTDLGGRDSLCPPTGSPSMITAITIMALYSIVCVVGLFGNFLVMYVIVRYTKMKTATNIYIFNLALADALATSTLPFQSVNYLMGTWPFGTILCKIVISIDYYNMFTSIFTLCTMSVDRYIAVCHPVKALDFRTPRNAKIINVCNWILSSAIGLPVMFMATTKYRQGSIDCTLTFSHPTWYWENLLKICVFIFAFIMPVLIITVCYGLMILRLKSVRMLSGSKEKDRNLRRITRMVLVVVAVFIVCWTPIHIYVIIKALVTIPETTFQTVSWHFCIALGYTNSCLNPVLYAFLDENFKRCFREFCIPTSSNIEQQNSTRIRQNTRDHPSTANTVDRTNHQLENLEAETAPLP
Data set [9] addresses T1, Mu-type opioid receptor. In words: Agonist activity at FLAG-tagged mu-type opioid receptor (unknown origin) expressed in HEK293 cells assessed as stimulation of ERK1/2 phosphorylation at 1 uM after 10 mins by Western blotting analysis. The format is cell-based. The following applies: TDE = time-dependent effect. Background: A western blot detects proteins with antibodies after separation by electrophoresis.

Data set [10] deals with T2, Delta-type opioid receptor (Homo sapiens, UniProt P41143). In words: Agonist activity at Myc-tagged delta-type opioid receptor (unknown origin) expressed in HEK293 cells assessed as inhibition of forskolin-stimulated cAMP accumulation after 30 mins by liquid scintillation counting analysis relative to DAMGO. In kind it is functional, cell-based. (In general: Cyclic AMP is a second messenger, typically raised through Gs and lowered through Gi signalling.)
T2 sequence (P41143 whole entry): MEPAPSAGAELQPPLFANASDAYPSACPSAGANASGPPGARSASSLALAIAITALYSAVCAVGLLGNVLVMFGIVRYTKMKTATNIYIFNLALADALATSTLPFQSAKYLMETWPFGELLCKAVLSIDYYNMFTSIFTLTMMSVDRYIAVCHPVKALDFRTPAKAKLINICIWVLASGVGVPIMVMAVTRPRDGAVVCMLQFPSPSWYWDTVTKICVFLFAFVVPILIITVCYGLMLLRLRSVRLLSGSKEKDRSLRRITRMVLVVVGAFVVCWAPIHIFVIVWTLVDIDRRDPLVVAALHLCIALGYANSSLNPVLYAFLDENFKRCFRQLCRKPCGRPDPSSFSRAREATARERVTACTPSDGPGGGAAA

Data set [11] concerns the target T2, Delta-type opioid receptor. Kind of data set: Agonist activity at Myc-tagged delta-type opioid receptor (unknown origin) expressed in HEK293 cells assessed as inhibition of forskolin-stimulated cAMP accumulation after 30 mins by liquid scintillation counting analysis. In kind it is functional, cell-based.
The target in data set [12] is T1, Mu-type opioid receptor. In words: Agonist activity at FLAG-tagged mu-type opioid receptor (unknown origin) expressed in HEK293 cells assessed as inhibition of forskolin-stimulated cAMP accumulation after 30 mins by liquid scintillation counting analysis relative to DAMGO. In kind it is functional, cell-based.
The target in data set [13] is T1, Mu-type opioid receptor. Kind of data set: Agonist activity at FLAG-tagged mu-type opioid receptor (unknown origin) expressed in HEK293 cells assessed as inhibition of forskolin-stimulated cAMP accumulation after 30 mins by liquid scintillation counting analysis. The format is functional, cell-based.
The target in data set [14] is Mu-type opioid receptor (Mus musculus) (UniProt P42866). Kind of data set: Agonist activity at mu-type opioid receptor in Kunming mouse vas deferens assessed as inhibition of electrically evoked muscle contraction in presence of naltrindole.
Chain of Mu-type opioid receptor (Mus musculus) (P42866 whole entry): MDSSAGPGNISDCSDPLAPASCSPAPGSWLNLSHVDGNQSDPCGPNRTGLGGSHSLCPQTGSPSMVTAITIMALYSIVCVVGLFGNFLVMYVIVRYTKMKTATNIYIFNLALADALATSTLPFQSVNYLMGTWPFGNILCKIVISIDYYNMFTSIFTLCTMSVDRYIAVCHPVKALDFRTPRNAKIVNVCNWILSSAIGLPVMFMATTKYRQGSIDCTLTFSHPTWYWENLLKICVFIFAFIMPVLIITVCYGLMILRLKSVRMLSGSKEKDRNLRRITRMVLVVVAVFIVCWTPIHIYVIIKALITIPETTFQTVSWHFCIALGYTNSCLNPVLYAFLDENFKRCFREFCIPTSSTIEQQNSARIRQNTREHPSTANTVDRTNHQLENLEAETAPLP
The target of data set [15] is Mu-type opioid receptor (Mus musculus, UniProt P42866). In words: Agonist activity at mu-type opioid receptor in Kunming mouse vas deferens assessed as inhibition of electrically evoked muscle contraction.
Chain of Mu-type opioid receptor (Mus musculus, UniProt P42866) (P42866 whole entry): as above
The target in data set [16] is Mu-type opioid receptor (Cavia porcellus, UniProt P97266). In words: Agonist activity at mu-type opioid receptor in guinea pig ileum assessed as inhibition of electrically evoked muscle contraction. In kind it is tissue-based.
Chain of Mu-type opioid receptor (Cavia porcellus, UniProt P97266) (P97266 whole entry): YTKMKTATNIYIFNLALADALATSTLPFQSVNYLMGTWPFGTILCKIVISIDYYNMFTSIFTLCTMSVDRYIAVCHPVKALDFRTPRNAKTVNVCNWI
A short description of data set [17]: Selectivity ratio of Ki for kappa-type opioid receptor (unknown origin) to Ki for FLAG-tagged mu-type opioid receptor (unknown origin). Conditions: Homo sapiens.
A further data set is filed under the species Homo sapiens. Kind of data set: Selectivity ratio of Ki for Myc-tagged delta-type opioid receptor (unknown origin) to Ki for FLAG-tagged mu-type opioid receptor (unknown origin).
Data set [18] has as its target Kappa-type opioid receptor (Homo sapiens, UniProt P41145). Kind of data set: Displacement of [3H]U69,593 from kappa-type opioid receptor (unknown origin) expressed in HEK293 cells after 60 mins by liquid scintillation counting analysis. The format is cell-based.
Data set [19] concerns the target T2, Delta-type opioid receptor. In words: Displacement of [3H]DPDPE from Myc-tagged delta-type opioid receptor (unknown origin) expressed in HEK293 cells after 60 mins by liquid scintillation counting analysis. In kind it is cell-based.
The target of data set [20] is T1, Mu-type opioid receptor. In words: Displacement of [3H]DAMGO from FLAG-tagged mu-type opioid receptor (unknown origin) expressed in HEK293 cells after 60 mins by liquid scintillation counting analysis. In kind it is cell-based.

Structures are written as SMILES. Active and inactive are the calls of the source.

Chain of Kappa-type opioid receptor (P41145 whole entry): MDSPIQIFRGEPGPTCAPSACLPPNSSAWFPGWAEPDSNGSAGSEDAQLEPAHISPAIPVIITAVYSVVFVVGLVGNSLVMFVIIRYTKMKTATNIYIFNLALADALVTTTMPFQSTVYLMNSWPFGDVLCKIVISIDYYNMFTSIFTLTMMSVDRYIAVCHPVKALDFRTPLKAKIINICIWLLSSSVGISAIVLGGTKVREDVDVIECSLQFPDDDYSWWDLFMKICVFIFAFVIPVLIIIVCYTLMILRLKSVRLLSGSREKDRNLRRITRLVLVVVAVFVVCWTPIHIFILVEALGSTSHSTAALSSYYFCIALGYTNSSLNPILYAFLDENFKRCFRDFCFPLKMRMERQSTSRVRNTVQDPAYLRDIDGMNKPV

Regarding `C=C(C(N)=O)[C@@H](NC(=O)[C@H](Cc1c[nH]c2ccccc12)NC(=O)[C@H]1CCN(C(=O)[C@@H](N)Cc2c(C)cc(O)cc2C)C1)c1ccccc1`, the Activity entry is “Dose-dependent effect” in the data set with Mus musculus [1], “tde” in the data set on Mus musculus [6], “tde” on Mu-type opioid receptor [9] and “Dose-dependent effect” in data set [11]. Moreover, in the data set with Mus musculus [1] (central), the 50% effective dose (ED50) is 0.000779 µmol/kg. The outcome with Mus musculus [2], in the data set on Mus musculus [4] and at Mu-type opioid receptor [8] was Active. In addition, the result with Mus musculus [3] and in the data set with Mus musculus [5] was inactive. In data set [7], this compound displayed a half-life of more than 10 h. Also, the values for the Emax (in [10]; at Mu-type opioid receptor [12]) were 77.6% and 97.1%, respectively. For the same compound, the EC50 in [11] was found to be 40.4 nM; on Mu-type opioid receptor [13], 0.000107 nM. Also, the inhibition result on Mu-type opioid receptor [13] is “Dose-dependent effect”. In addition, the inhibition result in data set [14] is “Active”. Besides, the IC50 at Mu-type opioid receptor [15] was found to be 1.53 nM; at Mu-type opioid receptor [16], 0.539 nM. The Ratio Ki turned out to be 17500 in data set [17] and 1380 in the data set listed under Homo sapiens. In addition, the Ki in data set [18] is 240 nM; in data set [19], 18.9 nM; at Mu-type opioid receptor [20], 0.0137 nM.

As a reminder, the ED50 is the dose that gives a 50% effect, or the effect in half of the subjects. As a reminder, the half-life is the time needed for the level to fall by half in the phase considered. Usually Emax stands for the greatest response seen or fitted, relative to the assay's reference. By EC50 is commonly meant the concentration that produces a half-maximal response. A word on the IC50: it is the midpoint of a concentration-inhibition curve. A word on the Ki: it is a measure of affinity in units of concentration, obtained from inhibition or displacement. High values mean lower affinity, low ones higher affinity.
